Experiments:
Assay in all cases: microbe, parasite or virus in culture
Format in all cases: cell-based
[1] = test system: wild type laboratory HIV strain (WT IIIB-2-001); settings: Human immunodeficiency virus 1, IIIB, 72 h, read-out: EC50, Virus Strains WT IIIB-2-001
Protocol: (§1) The compounds were tested in a cellular assay using the MT4-LTR-EGFP cells for anti-viral activity. […] Because of the increasing emergence of drug resistant HIV strains, the present compounds were tested for their potency against clinically isolated HIV strains harboring several mutations. […] The viral strains A, B, C and D contain mutations as indicated below in Table 2.
(§2) The cellular assay was performed according to the following procedure. HIV- or mock-infected MT4-LTR-EGFP cells were incubated for three days in the presence of various concentrations of the compounds according to the invention. Upon infection, the viral tat protein activates the GFP reporter. At the end of the incubation period, the GFP signal was measured. […] The inhibitory activity of the compound was monitored on the virus-infected cells and was expressed as EC50. These values represent the amount of the compound required to protect 50% of the cells from virus infection.

[2] = test system: clinically isolated HIV strain C-2-001; settings: Human immunodeficiency virus 1, 72 h, read-out: EC50, Virus Strains C-2-001
Protocol: as §1, §2

[3] = test system: clinically isolated HIV strain A-2-001; settings: Human immunodeficiency virus 1, 72 h, read-out: EC50, Virus Strains A-2-001
Protocol: as §1, §2

[4] = test system: clinically isolated HIV strain D-2-001; settings: Human immunodeficiency virus 1, 72 h, read-out: EC50, Virus Strains D-2-001
Protocol: as §1, §2

[5] = test system: clinically isolated HIV strain B-2-001; settings: Human immunodeficiency virus 1, 72 h, read-out: EC50, Virus Strains B-2-001
Protocol: as §1, §2

| SMILES | EC50 [1] [nM] | EC50 [2] [nM] | EC50 [3] [nM] | EC50 [4] [nM] | EC50 [5] [nM] |
| --- | --- | --- | --- | --- | --- |
| CC(C)CN(CC(O)C(Cc1ccccc1)NC(=O)OC1COC2OCCC12)S(=O)(=O)c1ccc(N)c(NCc2ccc(F)cc2F)c1 (stereo not shown) [Compound 78, (3-{[4-amino-3-(2,4-difluoro-benzylamino)-benzenesulfonyl]-isobutyl-amino}-1-benzyl-2-hydroxy-propyl)-carbamic acid hexahydro-furo[2,3-b]furan-3-yl ester] | 3.63 | 10 | 0.617 | 35.5 | 135 |
| CC(C)CN(C[C@@H](O)[C@H](Cc1ccccc1)NC(=O)O[C@H]1CO[C@H]2OCC[C@H]21)S(=O)(=O)c1ccc(N)c(NCc2ccccn2)c1 [Compound 80, [3-({4-amino-3-[(pyridin-2-ylmethyl)-amino]-benzenesulfonyl}-isobutyl-amino)-1-benzyl-2-hydroxy-propyl]-carbamic acid hexahydro-furo[2,3-b]furan-3-yl ester] | 8.91 | 14.5 | 1.48 | 38.9 | 93.3 |
